pIC50: −log10 of the molar value.
Key:
Assay type in all cases: cell-based
[1] = biological target: T1, TPM3-TRKA (Homo sapiens, UniProt P04629); assay: Engineered Ba/F3 cell proliferation inhibition (MTS), TPM3-TRKA; conditions: Ba/F3-TPM3-TRKA cells, 72 h
T1 construct: TPM3 (fusion partner, N-terminal part); expressed in transfected cells; the other entry of the earlier key: TPM3 (P06753, Tropomyosin alpha-3 chain)
From the text: (§1) MTS testing kit was purchased from Promega (Madison, Wis., USA). The RPMI-1640, Fetal bovine serum and Penicillin-Streptomycin were purchased from Gibco (San Francisco, Calif., USA). Dimethyl sulfoxide (DMSO) and Puromycin were purchased from Sigma (St. Louis, Mo., USA). Mouse interleukin-3 (IL-3) was purchased from Cell signaling Technology (Boston, Mass., USA).
(§2) To investigate whether a compound is able to inhibit the activity of TRK fusion mutation in cells, a mechanism-based assay using engineered Ba/F3 cell lines stably overexpressing oncogenic rearrangement or gene mutation of TRK (TPM3-TRKA, TPM3-TRKA-G595R, AFAP1-TRKB, ETV6-TRKC and ETV6-TRKC-G623R) were developed. In this assay, inhibition of TRK fusion mutation was detected by the cell proliferation inhibition of engineered Ba/F3 cells. Engineered Ba/F3 cells were cultured in culture flasks to 40-80% confluence in RPMI-1640 supplemented with 10% fetal bovine serum, 2 ug/mL puromycin. Cells were collected and plated onto 96-well plates at desired cell density (Ba/F3-TPM3-TRKA: 3×10^4/mL, Ba/F3-TPM3-TRKA-G595R: 1×10^5/mL, Ba/F3-AFAP1-TRKB: 1×10^5/mL, Ba/F3-ETV6-TRKC: 3×10^4/mL, Ba/F3-ETV6-TRKC-G623R: 3×10^4/mL). Plates were incubated at 37° C., with 5% CO2 for 4 h. Compounds were then added to the plates with the final compound concentrations of 10000, 3333, 1111, 270, 123, 41.2, 13.7, 4.6 and 1.5 nM. Plates were incubated at 37° C., with 5% CO2 for 72 h. A mixture of 20 μl MTS/100 μl medium were added to each well and the plates were incubated at 37° C., with 5% CO2 for exactly 2 h. The reaction was stopped by adding 25 μl of 10% SDS per well. The absorbance was measured at 490 nm and 650 nm (reference wavelength). IC50 was calculated using GraphPad Prism 5.0 software.

[2] = tested on: KM12 cells; assay: KM12 cells proliferation inhibition (MTS), mechanism-based TRK assay; conditions: Homo sapiens, 72 h
From the text: as §1
To investigate whether a compound is able to inhibit the activity of TRK in cells, a mechanism-based assay using KM12 cells was developed. In this assay, inhibition of TRK was detected by the inhibition of KM12 cells proliferation. KM12 cells were cultured in culture flasks to 40-80% confluence in RPMI-1640 plus 10% fetal bovine serum. Cells were collected and plated onto 96-well plates at 1000 cells/well. Plates were incubated at 37° C., with 5% CO2 for 4 h. Compounds were added to the plates, the final compound concentrations were […], 123.5, 41.2, 13.7, 4.6 and 1.5 nM. Place plates at 37° C., with 5% CO2 for KM12 cells 72 h. 20 μl MTS/100 μl medium mixture solution were added to each well and incubate the plates for exactly 2 h. Stop the reaction by adding 25 μl 10% SDS per well. Measure absorbance at 490 nm and 650 nm (reference wavelength). IC50 was calculated using GraphPad Prism 5.0.

[3] = biological target: T2, TPM3-TRKA-G595R (Homo sapiens, UniProt P04629, G595R); assay: Engineered Ba/F3 cell proliferation inhibition (MTS), TPM3-TRKA-G595R; conditions: Ba/F3-TPM3-TRKA-G595R cells, 72 h
T2 construct: TPM3 (fusion partner, N-terminal part); expressed in transfected cells; the other entry of the earlier key: TPM3 (P06753, Tropomyosin alpha-3 chain)
T2 sequence (P04629 510-796 G595R limits assumed): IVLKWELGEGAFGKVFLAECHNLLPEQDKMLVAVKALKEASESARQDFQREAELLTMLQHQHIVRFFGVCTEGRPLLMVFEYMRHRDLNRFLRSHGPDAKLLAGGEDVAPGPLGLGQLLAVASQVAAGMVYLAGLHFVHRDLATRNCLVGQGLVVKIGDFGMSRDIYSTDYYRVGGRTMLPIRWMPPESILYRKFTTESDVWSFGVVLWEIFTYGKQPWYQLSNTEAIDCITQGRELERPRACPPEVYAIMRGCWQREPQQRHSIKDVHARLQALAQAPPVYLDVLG
From the text: as §1, §2

[4] = biological target: T3, ETV6-TRKC-G623R (Homo sapiens, UniProt Q16288, G623R, cells depend on it); assay: Engineered Ba/F3 cell proliferation inhibition (MTS), ETV6-TRKC-G623R; conditions: 72 h, read-out: ETV6-TRKC-G623R IC50
T3 construct: fused on or other part: P41212 (Transcription factor ETV6)
T3 sequence (Q16288 whole entry G623R, the tested form may be a part): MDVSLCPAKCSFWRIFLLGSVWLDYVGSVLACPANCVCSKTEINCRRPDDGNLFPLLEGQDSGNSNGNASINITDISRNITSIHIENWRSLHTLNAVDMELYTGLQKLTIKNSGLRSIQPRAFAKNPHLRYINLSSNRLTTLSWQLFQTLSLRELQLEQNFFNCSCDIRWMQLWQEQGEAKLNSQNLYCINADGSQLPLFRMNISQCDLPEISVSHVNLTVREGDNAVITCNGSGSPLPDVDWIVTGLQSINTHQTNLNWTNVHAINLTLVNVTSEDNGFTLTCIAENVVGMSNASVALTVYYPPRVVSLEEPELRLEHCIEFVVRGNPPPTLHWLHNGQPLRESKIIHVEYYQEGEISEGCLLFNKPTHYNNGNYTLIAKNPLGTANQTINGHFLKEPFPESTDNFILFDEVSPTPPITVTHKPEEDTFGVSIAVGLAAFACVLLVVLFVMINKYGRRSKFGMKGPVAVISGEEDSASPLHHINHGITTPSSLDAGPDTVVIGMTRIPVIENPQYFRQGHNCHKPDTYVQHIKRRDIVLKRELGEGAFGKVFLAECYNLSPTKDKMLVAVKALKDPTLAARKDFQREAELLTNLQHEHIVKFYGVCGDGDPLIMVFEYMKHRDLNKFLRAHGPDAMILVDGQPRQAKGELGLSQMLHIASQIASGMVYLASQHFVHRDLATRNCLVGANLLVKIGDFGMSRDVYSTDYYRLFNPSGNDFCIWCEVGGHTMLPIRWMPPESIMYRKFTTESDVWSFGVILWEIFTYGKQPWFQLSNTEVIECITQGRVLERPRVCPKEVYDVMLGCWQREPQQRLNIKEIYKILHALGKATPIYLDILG
From the text: as §1
as §2, with “Compounds were then added to the plates with the final compound concentrations of 10000, 3333, 1111, 270, 123, 41.2, 13.7, 4.6 and 1.5 nM. Plates were incubated at 37° C., with 5% CO2 for 72 h. A mixture of 20 μl MTS/100 μl medium were added to each well and the plates were incubated at 37° C., with 5% CO2 for exactly 2 h. The reaction was stopped by adding 25 μl of 10% SDS per well.” left out

[5] = biological target: T4, ETV6-TRKC (Homo sapiens, UniProt Q16288); assay: Engineered Ba/F3 cell proliferation inhibition (MTS), ETV6-TRKC; conditions: Ba/F3-ETV6-TRKC cells, 72 h
T4 construct: ETV6 (fusion partner, N-terminal part); expressed in transfected cells; the other entry of the earlier key: ETV6 (P41212, Transcription factor ETV6)
T4 sequence (Q16288 530-825 isoform Q16288-3 limits assumed): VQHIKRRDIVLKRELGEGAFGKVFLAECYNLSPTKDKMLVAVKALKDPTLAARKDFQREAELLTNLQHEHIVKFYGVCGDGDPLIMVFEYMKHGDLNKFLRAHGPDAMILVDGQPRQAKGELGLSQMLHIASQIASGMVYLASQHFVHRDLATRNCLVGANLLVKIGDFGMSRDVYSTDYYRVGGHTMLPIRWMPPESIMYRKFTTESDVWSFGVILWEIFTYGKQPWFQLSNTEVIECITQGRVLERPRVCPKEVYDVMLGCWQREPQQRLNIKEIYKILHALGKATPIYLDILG
From the text: as §1, §2

[6] = biological target: T5, AFAP1-TRKB (Homo sapiens, UniProt Q16620); assay: Engineered Ba/F3 cell proliferation inhibition (MTS), AFAP1-TRKB; conditions: Ba/F3-AFAP1-TRKB cells, 72 h
T5 construct: AFAP1 (fusion partner, N-terminal part); expressed in transfected cells; the other entry of the earlier key: AFAP1 (Q8N556, Actin filament-associated protein 1)
T5 sequence (Q16620 538-822 limits assumed): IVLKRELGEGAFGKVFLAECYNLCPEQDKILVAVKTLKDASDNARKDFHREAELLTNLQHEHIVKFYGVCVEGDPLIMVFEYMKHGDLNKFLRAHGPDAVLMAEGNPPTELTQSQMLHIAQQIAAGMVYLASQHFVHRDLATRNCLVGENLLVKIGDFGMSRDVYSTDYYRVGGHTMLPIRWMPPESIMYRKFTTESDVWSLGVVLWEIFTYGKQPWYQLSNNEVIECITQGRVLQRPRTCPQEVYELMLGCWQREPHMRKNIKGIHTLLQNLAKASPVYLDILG
From the text: as §1
as §2, with “Compounds were then added to the plates with the final compound concentrations of 10000, 3333, 1111, 270, 123, 41.2, 13.7, 4.6 and 1.5 nM. Plates were incubated at 37° C., with 5% CO2 for 72 h. A mixture of 20 μl MTS/100 μl medium were added to each well and the plates were incubated at 37° C., with 5% CO2 for exactly 2 h. The reaction was stopped by adding 25 μl of 10% SDS per well.” left out

T1 sequence (P04629 510-796 limits assumed): as the sequence (P04629 510-796 G595R limits assumed) above, with R86G counted along it

Row | pIC50 [1] | pIC50 [3] | GI50 [4] [nM] | pIC50 [5] | pIC50 [6] | Structure (SMILES) | pIC50 [2]
1 | 8.70 | 7.68 | 20 | 7.96 |  | CC(C)(C)c1nnc(-c2cnn3ccc(N4CC[C@H]5C[C@]54c4cc(F)ccc4F)nc23)s1 [Example 27, 2-(tert-butyl)-5-(5-((1R,5S)-1-(2,5-difluorophenyl)-2-azabicyclo[3.1.0]hexan-2-yl)pyrazolo[1,5-a]pyrimidin-3-yl)-1,3,4-thiadiazole] | 7.96
2 | 8.52 |  |  | 9.00 | 7.85 | O=C(Nc1cnn2ccc(N3CC[C@H]4C[C@]43c3cc(F)ccc3F)nc12)N1CC[C@H](O)C1 [Example 1, (S)—N-(5-((1R,5S)-1-(2,5-difluorophenyl)-2-azabicyclo[3.1.0]hexan-2-yl)pyrazolo[1,5-a]pyrimidin-3-yl)-3-hydroxypyrrolidine-1-carboxamide] | 9.00
3 | 8.70 | 7.82 | 6 | 9.00 |  | CC(C)c1nnc(-c2cnn3ccc(N4CC[C@H]5C[C@]54c4cc(F)ccc4F)nc23)s1 [Example 26, 2-(5-((1R,5S)-1-(2,5-difluorophenyl)-2-azabicyclo [3.1.0]hexan-2-yl)pyrazolo[1,5-a]pyrimidin-3-yl)-5-isopropyl-1,3,4-thiadiazole] | 8.40

Source: patent publication US11459332B2, “Substituted 2-azabicyclo[3.1.0]hexanes as TRK kinases inhibitors” (FOCHON BIOSCIENCES, LTD., priority 2018, dated 2022)
